Like-named read-outs stand apart in the source and are kept apart here.
Test system: recombinant rabies virus 1088 strain expressing Gaussia Luciferase (GLuc) (1088/GLuc)
Format: cell-based

Row | SMILES | IC50 (read-out: Anti-rabies activity) | IC50 (read-out: IC50)
1 | CC(C)CCNC(=O)[C@@]12C[C@@H]3CN(CCc4ccccc4)[C@@H]([C@@H]3CN1)[C@H]2CC(C)C (relative stereo) [IF-657] | < 5 µM | 
2 | CC(C)CC[C@@H]1[C@@H]2CN[C@@]3(C(=O)NCc4ccccc4)[C@@H](C2)CN(Cc2ccc(O)cc2)[C@@H]13 (relative stereo) [IB-786] | 10 to 30 µM | 
3 | CCCCCCNC(=O)[C@@]12C[C@@H]3CN(CCc4ccccc4)[C@@H]([C@@H]3CN1)[C@H]2Cc1ccccc1 (relative stereo) [IF-602] | 10 to 30 µM | 
4 | CC(C)CCN1C[C@H]2C[C@]3(C(=O)NCCc4ccccc4)NC[C@H]2[C@H]1[C@H]3Cc1ccc(O)cc1 (relative stereo) [IF-545] | 10 to 30 µM | 
5 | CC(C)CNC(=O)[C@@]12C[C@@H]3CN(Cc4cccc5ccccc45)[C@@H]([C@@H]3CN1)[C@H]2CCCNC(=N)N (relative stereo) [IF-235] | 10 to 30 µM | 
6 | CC(C)CC1C2CNC3(C(=O)NCc4cccc5ccccc45)C(C2)CN(CCC(=O)O)C13 (centres unmarked) [IB-392] | 10 to 30 µM | 
7 | NC(=O)CN1C[C@@H]2C[C@H]3CN[C@]2(C(=O)NCc2cccc4ccccc24)[C@@H]1[C@@H]3Cc1cccc2ccccc12 (relative stereo) [IB-90] | < 5 µM | 
8 | CC(C)CCNC(=O)[C@]12NC[C@@H]3C[C@H]1CN(Cc1ccc(O)cc1)[C@H]2[C@@H]3Cc1ccccc1 (relative stereo) [IB-574] | 10 to 30 µM | 
9 | CC(C)CCNC(=O)[C@@]12C[C@@H]3CN(CCO)[C@@H]([C@@H]3CN1)[C@H]2Cc1cccc2ccccc12 (relative stereo) [IF-660] | 10 to 30 µM | 
10 | N=C(N)NCCC[C@@H]1[C@@H]2[C@@H]3CN[C@@]1(C(=O)NCc1ccccc1)C[C@@H]3CN2Cc1cccc2ccccc12 (relative stereo) [IF-236] | 10 to 30 µM | 
11 | CC(C)C[C@@H]1[C@@H]2[C@@H]3CN[C@@]1(C(=O)NCc1cccc4ccccc14)C[C@@H]3CN2Cc1ccc(O)cc1 (relative stereo) [IF-578] | < 5 µM | 
12 | NC(=O)CCNC(=O)[C@@]12C[C@@H]3CN(CC4CCCCC4)[C@@H]([C@@H]3CN1)[C@H]2Cc1cccc2ccccc12 (relative stereo) [IF-536] | < 5 µM | 
13 | CCCCCCNC(=O)[C@]12NC[C@@H]3C[C@H]1CN(Cc1ccc(F)cc1)[C@H]2[C@@H]3Cc1ccc(O)cc1 (relative stereo) [IB-656] | < 5 µM | 
14 | O=C(NCCO)[C@@]12C[C@@H]3CN(Cc4cccc5ccccc45)[C@@H]([C@@H]3CN1)[C@H]2Cc1cccc2ccccc12 (relative stereo) [IF-614] | 10 to 30 µM | 
15 | CC(C)CCN1C[C@@H]2C[C@H]3CN[C@]2(C(=O)NCCC(=O)O)[C@@H]1[C@@H]3Cc1cccc2ccccc12 (relative stereo) [IB-381] | 10 to 30 µM | 
16 | N=C(N)NCCCNC(=O)[C@]12NC[C@@H]3C[C@H]1CN(Cc1cccc4ccccc14)[C@H]2[C@@H]3Cc1ccccc1 (relative stereo) [IB-351] | 10 to 30 µM | 
17 | CC(C)CNC(=O)[C@]12NC[C@@H]3C[C@H]1CN(Cc1ccc(F)cc1)[C@H]2[C@@H]3CC(C)C (relative stereo) [IB-630] | < 5 µM | 
18 | CC(C)CC1C2C3C=NC1(C(=O)NCc1ccccc1)CC3CN2Cc1ccc(OC(F)(F)F)cc1 (centres unmarked) [IIF-96] | 5 to 10 µM | 
19 | CC(C)CNC(=O)[C@@]12C[C@@H]3CN(CC4CCCCC4)[C@@H]([C@@H]3CN1)[C@H]2Cc1cccc2ccccc12 (relative stereo) [IF-646] | < 5 µM | 
20 | CC(C)CCNC(=O)[C@]12NC[C@@H]3C[C@H]1CN(CC1CCCCC1)[C@H]2[C@@H]3Cc1ccc(O)cc1 (relative stereo) [IB-648] | 10 to 30 µM | 
21 | CCCCCCNC(=O)[C@@]12C[C@@H]3CN(CC(C)C)[C@@H]([C@@H]3CN1)[C@H]2CC(C)C (relative stereo) [IF-569] | 10 to 30 µM | 

Row | SMILES | IC50 (read-out: Anti-rabies activity) | IC50 (read-out: IC50)
22 | CC(C)CC1C2CNC3(C(=O)NCCc4ccccc4)C(C2)CN(CC(N)=O)C13 (centres unmarked) [IB-86] | 10 to 30 µM | 
23 | O=C(O)CCN1CC2CC3(C(=O)NCCO)NCC2C1C3Cc1cccc2ccccc12 (centres unmarked) [IF-452] | 10 to 30 µM | 
24 | NC(=O)CN1CC2CC3(C(=O)NCCc4ccccc4)NCC2C1C3Cc1cccc2ccccc12 (centres unmarked) [IF-90] | 10 to 30 µM | 
25 | O=C(NCc1ccc(O)cc1)[C@]12NC[C@@H]3C[C@H]1CN(Cc1ccc(F)cc1)[C@H]2[C@@H]3Cc1ccccc1 (relative stereo) [IB-583] | 10 to 30 µM | 
26 | NC(=O)CCNC(=O)C12NCC3CC1CN(Cc1ccccc1)C2C3Cc1ccccc1 (centres unmarked) [IB-734] | 10 to 30 µM | 
27 | CCCCCCNC(=O)[C@]12NC[C@@H]3C[C@H]1CN(CCc1ccccc1)[C@H]2[C@@H]3CCCNC(=N)N (relative stereo) [IB-256] | 10 to 30 µM | 
28 | O=C(NCc1ccccc1)[C@]12NC[C@@H]3C[C@H]1CN(CCO)[C@H]2[C@@H]3Cc1ccccc1 (relative stereo) [IB-619] | 10 to 30 µM | 
29 | CC(C)CCNC(=O)[C@@]12C[C@@H]3CN(Cc4ccc(F)cc4)[C@@H]([C@@H]3CN1)[C@H]2CC(C)C (relative stereo) [IF-585] | < 5 µM | 
30 | CC(C)CNC(=O)[C@]12NC[C@@H]3C[C@H]1CN(CC1CCCCC1)[C@H]2[C@@H]3Cc1ccc(O)cc1 (relative stereo) [IB-770] | 10 to 30 µM | 
31 | CC(C)CC[C@@H]1[C@@H]2[C@@H]3CN[C@@]1(C(=O)NCc1ccc(F)cc1)C[C@@H]3CN2CC(N)=O (relative stereo) [IF-95] | 10 to 30 µM | 
32 | NC(=O)CCNC(=O)[C@]12NC[C@@H]3C[C@H]1CN(CC1CCCCC1)[C@H]2[C@@H]3Cc1cccc2ccccc12 (relative stereo) [IB-522] | 10 to 30 µM | 
33 | CC(C)CNC(=O)[C@@]12C[C@@H]3CN(Cc4ccc(F)cc4)[C@@H]([C@@H]3CN1)[C@H]2CC(C)C (relative stereo) [IF-654] | < 5 µM | 
34 | O=C(O)CCN1CC2CC3CNC2(C(=O)NCc2ccc(F)cc2)C1C3Cc1ccccc1 (centres unmarked) [IB-394] | 10 to 30 µM | 
35 | CC(C)CCN1CC2CC3(C(=O)NC(C)C)NCC2C1C3CCCNC(=N)N (centres unmarked) [IF-214] | 10 to 30 µM | 
36 | CC(C)CCN1C[C@@H]2C[C@H]3CN[C@]2(C(=O)NCCC(N)=O)[C@@H]1[C@@H]3Cc1cccc2ccccc12 (relative stereo) [IB-703] | < 5 µM | 
37 | N=C(N)NCCC[C@@H]1[C@@H]2CN[C@@]3(C(=O)NCCc4ccccc4)[C@@H](C2)CN(Cc2ccc(F)cc2)[C@@H]13 (relative stereo) [IB-262] | 10 to 30 µM | 
38 | N=C(N)NCCCC1C2CNC3(C(=O)NCc4ccc(F)cc4)C(C2)CN(Cc2ccc(O)cc2)C13 (centres unmarked) [IB-207] | 10 to 30 µM | 
39 | NC(=O)C[C@@H]1[C@@H]2[C@@H]3CN[C@@]1(C(=O)NCc1ccccc1)C[C@@H]3CN2CC1CCCCC1 (relative stereo) [IF-246] | 10 to 30 µM | 
40 | CC(C)CCC1C2C3CNC1(C(=O)NCc1ccc(O)cc1)CC3CN2CCC(=O)O (centres unmarked) [IF-458] | 10 to 30 µM | 
41 | CC(C)CC[C@@H]1[C@@H]2[C@@H]3CN[C@@]1(C(=O)NCc1ccc(O)cc1)C[C@@H]3CN2Cc1ccc(F)cc1 (relative stereo) [IF-479] | < 5 µM | 
42 | CC(C)C[C@@H]1[C@@H]2[C@@H]3CN[C@@]1(C(=O)NCCO)C[C@@H]3CN2CC1CCCCC1 (relative stereo) [IF-606] | 10 to 30 µM | 

Row | SMILES | IC50 (read-out: Anti-rabies activity) | IC50 (read-out: IC50)
43 | CC(C)C[C@@H]1[C@@H]2[C@@H]3CN[C@@]1(C(=O)NCc1ccc(O)cc1)C[C@@H]3CN2Cc1ccc(F)cc1 (relative stereo) [IF-482] | 10 to 30 µM | 
44 | CC(C)C[C@@H]1[C@@H]2CN[C@@]3(C(=O)NCCO)[C@@H](C2)CN(Cc2ccc(F)cc2)[C@@H]13 (relative stereo) [IB-650] | 10 to 30 µM | 
45 | O=C(NCCO)[C@]12NC[C@@H]3C[C@H]1CN(CCc1ccccc1)[C@H]2[C@@H]3Cc1cccc2ccccc12 (relative stereo) [IB-593] | 10 to 30 µM | 
46 | CC(C)CCN1C[C@@H]2C[C@H]3CN[C@]2(C(=O)NCc2ccccc2)[C@@H]1[C@@H]3Cc1ccccc1 (relative stereo) [IB-9] | 10 to 30 µM | 17 µM
47 | CC(C)CC[C@@H]1[C@@H]2CN[C@@]3(C(=O)NCCCNC(=N)N)[C@@H](C2)CN(CC2CCCCC2)[C@@H]13 (relative stereo) [IB-361] | 10 to 30 µM | 
48 | Cc1ccc(CN2CC3CC4(C(=O)NCc5ccccc5)N=CC3C2C4CC(C)C)cc1 (centres unmarked) [IIF-86] | < 5 µM | 
49 | CC(C)CCN1C[C@@H]2C[C@H]3CN[C@]2(C(=O)NCCC(N)=O)[C@@H]1[C@@H]3CCc1ccccc1 (relative stereo) [IB-636] | 10 to 30 µM | 
50 | CC(C)CC1C2C3C=NC1(C(=O)NCc1ccccc1)CC3CN2Cc1ccc(C(C)(C)C)cc1 (centres unmarked) [IIF-95] | < 5 µM | 
51 | O=C(NCc1ccc(F)cc1)C12NCC3CC1CN(CCO)C2C3Cc1cccc2ccccc12 (centres unmarked) [IB-831] | < 5 µM | 
52 | NC(=O)CCNC(=O)C12NCC3CC1CN(CCc1ccccc1)C2C3Cc1ccccc1 (centres unmarked) [IB-707] | < 5 µM | 
53 | CC(C)CCNC(=O)[C@@]12C[C@@H]3CN(Cc4ccccc4)[C@@H]([C@@H]3CN1)[C@H]2CC(C)C (relative stereo) [IF-691] | 10 to 30 µM | 
54 | N=C(N)NCCCNC(=O)[C@@]12C[C@@H]3CN(Cc4cccc5ccccc45)[C@@H]([C@@H]3CN1)[C@H]2Cc1ccccc1 (relative stereo) [IF-386] | 10 to 30 µM | 
55 | N=C(N)NCCCNC(=O)[C@]12NC[C@@H]3C[C@H]1CN(Cc1ccccc1)[C@H]2[C@@H]3Cc1ccccc1 (relative stereo) [IB-276] | 10 to 30 µM | 
56 | N=C(N)NCCCN1C[C@@H]2C[C@H]3CN[C@]2(C(=O)NCc2ccccc2)[C@@H]1[C@@H]3Cc1cccc2ccccc12 (relative stereo) [IB-300] | 10 to 30 µM | 
57 | CC(C)CC1C2C3CNC1(C(=O)NCc1ccc(F)cc1)CC3CN2Cc1ccccc1 (centres unmarked) [IF-807] | < 5 µM | 
58 | CC(C)C[C@@H]1[C@@H]2CN[C@@]3(C(=O)NCc4cccc5ccccc45)[C@@H](C2)CN(CCO)[C@@H]13 (relative stereo) [IB-585] | 10 to 30 µM | 
59 | CC(C)CCN1CC2CC3(C(=O)NCc4ccccc4)NCC2C1C3Cc1ccccc1 (centres unmarked) [IF-9] | 10 to 30 µM | 15.6 µM
60 | CCCCCCNC(=O)[C@@]12C[C@@H]3CN(Cc4ccccc4)[C@@H]([C@@H]3CN1)[C@H]2CC(C)C (relative stereo) [IF-560] | < 5 µM | 
61 | CC(C)CN1C[C@H]2C[C@]3(C(=O)NCc4ccc(O)cc4)NC[C@H]2[C@H]1[C@H]3Cc1cccc2ccccc12 (relative stereo) [IF-500] | 10 to 30 µM | 
62 | CC(C)CC[C@@H]1[C@@H]2[C@@H]3CN[C@@]1(C(=O)NCc1ccccc1)C[C@@H]3CN2CC1CCCCC1 (relative stereo) [IF-740] | 10 to 30 µM | 
63 | CC(C)CCNC(=O)C12NCC3CC1CN(CCO)C2C3Cc1ccccc1 (centres unmarked) [IB-714] | < 5 µM | 
